Laboratory results: patent US10626144B2, “Peptide derivatives and uses thereof” (Nosopharm, priority 2014, dated 2020)
Square brackets hold non-standard residues; d marks the D form. Peptide text beside a SMILES is read from it. ξ: configuration not given here. Phe(3-CF3) = N[C@@H](Cc1cccc(C(F)(F)F)c1)C(=O)O; Phe(4-CF3) = N[C@@H](Cc1ccc(C(F)(F)F)cc1)C(=O)O; Phe(2-CF3) = N[C@@H](Cc1ccccc1C(F)(F)F)C(=O)O; Phe(2,4-Me2) = Cc1ccc(C[C@H](N)C(=O)O)c(C)c1; Phe(2-CONH2) = NC(=O)c1ccccc1C[C@H](N)C(=O)O; Phe(3,4-F2) = N[C@@H](Cc1ccc(F)c(F)c1)C(=O)O; Phe(3,5-F2) = N[C@@H](Cc1cc(F)cc(F)c1)C(=O)O; Phe(3-CN) = N#Cc1cccc(C[C@H](N)C(=O)O)c1; Phe(3-OMe) = COc1cccc(C[C@H](N)C(=O)O)c1; Oic(3aξ,7aξ) = O=C(O)[C@@H]1CC2CCCCC2N1; Phe(2-CN) = N#Cc1ccccc1C[C@H](N)C(=O)O; Phe(2-Cl) = N[C@@H](Cc1ccccc1Cl)C(=O)O; Dab(3S-OH) = NC[C@H](O)[C@H](N)C(=O)O; Phe(2-Me) = Cc1ccccc1C[C@H](N)C(=O)O; His(π-Me) = Cn1cncc1C[C@H](N)C(=O)O; ΔZArg = N=C(N)NCC/C=C(\N)C(=O)O; dOrn = NCCC[C@@H](N)C(=O)O; Pip = O=C(O)[C@@H]1CCCCN1; Aze = O=C(O)[C@@H]1CCN1

Tests used:
Test in all cases: MIC, broth microdilution (CLSI), reference strain
Settings in all cases: CAMHB
[1] = tested on: Pseudomonas aeruginosa ATCC 27853
[2] = tested on: Escherichia coli ATCC 25922
[3] = tested on: Staphylococcus aureus ATCC 13709
[4] = tested on: Acinetobacter baumannii ATCC 19606

| SMILES | Pa: MIC Pseudomonas aeruginosa ATCC 27853 [1] | Ec: MIC Escherichia coli ATCC 25922 [2] | Sa: MIC Staphylococcus aureus ATCC 13709 [3] | Ab: MIC Acinetobacter baumannii ATCC 19606 [4] |
| --- | --- | --- | --- | --- |
| C[C@H](NC(=O)[C@@H](NC(=O)[C@@H](N)CCCCN)[C@@H](O)CN)C(=O)NCC(=O)N[C@H](CCCN)C(=O)N1CC[C@H]1C(=O)N[C@@H](Cc1cnc[nH]1)C(=O)N[C@@H](CCCCN)C(=O)N/C(=C\CCNC(=N)N)C(=O)O [24.73] (H-K[Dab(3S-OH)]AG[dOrn][Aze]HK[ΔZArg]-OH) | − (>32 μg/mL) | + (≤32 μg/mL) | + (≤32 μg/mL) | − (>32 μg/mL) |
| C[C@H](NC(=O)[C@@H](NC(=O)[C@@H](N)CCCCN)[C@@H](O)CN)C(=O)NCC(=O)N[C@H](CCCN)C(=O)N1CCCC[C@H]1C(=O)N[C@@H](Cc1cnc[nH]1)C(=O)N[C@@H](CCCCN)C(=O)N/C(=C\CCNC(=N)N)C(=O)O [24.74] (H-K[Dab(3S-OH)]AG[dOrn][Pip]HK[ΔZArg]-OH) | − (>32 μg/mL) | + (≤32 μg/mL) | + (≤32 μg/mL) | − (>32 μg/mL) |
| C[C@H](NC(=O)[C@@H](NC(=O)[C@@H](N)CCCCN)[C@@H](O)CN)C(=O)NCC(=O)N[C@H](CCCN)C(=O)N1C2CCCCC2C[C@H]1C(=O)N[C@@H](Cc1cnc[nH]1)C(=O)N[C@@H](CCCCN)C(=O)N/C(=C\CCNC(=N)N)C(=O)O (stereo partly drawn) [24.75] (H-K[Dab(3S-OH)]AG[dOrn][Oic(3aξ,7aξ)]HK[ΔZArg]-OH) | − (>32 μg/mL) | + (≤32 μg/mL) | + (≤32 μg/mL) | − (>32 μg/mL) |
| Cc1ccc(C[C@H](NC(=O)[C@@H]2CCCN2C(=O)[C@@H](CCCN)NC(=O)CNC(=O)[C@H](C)NC(=O)[C@@H](NC(=O)[C@@H](N)CCCCN)[C@@H](O)CN)C(=O)N[C@@H](CCCCN)C(=O)N/C(=C\CCNC(=N)N)C(=O)O)c(C)c1 [24.78] (H-K[Dab(3S-OH)]AG[dOrn]P[Phe(2,4-Me2)]K[ΔZArg]-OH) | − (>32 μg/mL) | + (≤32 μg/mL) | ++ (≤8 μg/mL) | − (>32 μg/mL) |
| C[C@H](NC(=O)[C@@H](NC(=O)[C@@H](N)CCCCN)[C@@H](O)CN)C(=O)NCC(=O)N[C@H](CCCN)C(=O)N1CCC[C@H]1C(=O)N[C@@H](Cc1ccccc1C(F)(F)F)C(=O)N[C@@H](CCCCN)C(=O)N/C(=C\CCNC(=N)N)C(=O)O [24.79] (H-K[Dab(3S-OH)]AG[dOrn]P[Phe(2-CF3)]K[ΔZArg]-OH) | − (>32 μg/mL) | + (≤32 μg/mL) | ++ (≤8 μg/mL) | − (>32 μg/mL) |
| C[C@H](NC(=O)[C@@H](NC(=O)[C@@H](N)CCCCN)[C@@H](O)CN)C(=O)NCC(=O)N[C@H](CCCN)C(=O)N1CCC[C@H]1C(=O)N[C@@H](Cc1ccccc1Cl)C(=O)N[C@@H](CCCCN)C(=O)N/C(=C\CCNC(=N)N)C(=O)O [24.80] (H-K[Dab(3S-OH)]AG[dOrn]P[Phe(2-Cl)]K[ΔZArg]-OH) | − (>32 μg/mL) | + (≤32 μg/mL) | ++ (≤8 μg/mL) | − (>32 μg/mL) |
| C[C@H](NC(=O)[C@@H](NC(=O)[C@@H](N)CCCCN)[C@@H](O)CN)C(=O)NCC(=O)N[C@H](CCCN)C(=O)N1CCC[C@H]1C(=O)N[C@@H](Cc1ccccc1C#N)C(=O)N[C@@H](CCCCN)C(=O)N/C(=C\CCNC(=N)N)C(=O)O [24.81] (H-K[Dab(3S-OH)]AG[dOrn]P[Phe(2-CN)]K[ΔZArg]-OH) | − (>32 μg/mL) | − (>32 μg/mL) | − (>32 μg/mL) | − (>32 μg/mL) |
| C[C@H](NC(=O)[C@@H](NC(=O)[C@@H](N)CCCCN)[C@@H](O)CN)C(=O)NCC(=O)N[C@H](CCCN)C(=O)N1CCC[C@H]1C(=O)N[C@@H](Cc1ccccc1C(N)=O)C(=O)N[C@@H](CCCCN)C(=O)N/C(=C\CCNC(=N)N)C(=O)O [24.82] (H-K[Dab(3S-OH)]AG[dOrn]P[Phe(2-CONH2)]K[ΔZArg]-OH) | − (>32 μg/mL) | − (>32 μg/mL) | + (≤32 μg/mL) | − (>32 μg/mL) |
| Cc1ccccc1C[C@H](NC(=O)[C@@H]1CCCN1C(=O)[C@@H](CCCN)NC(=O)CNC(=O)[C@H](C)NC(=O)[C@@H](NC(=O)[C@@H](N)CCCCN)[C@@H](O)CN)C(=O)N[C@@H](CCCCN)C(=O)N/C(=C\CCNC(=N)N)C(=O)O [24.83] (H-K[Dab(3S-OH)]AG[dOrn]P[Phe(2-Me)]K[ΔZArg]-OH) | − (>32 μg/mL) | + (≤32 μg/mL) | ++ (≤8 μg/mL) | − (>32 μg/mL) |
| C[C@H](NC(=O)[C@@H](NC(=O)[C@@H](N)CCCCN)[C@@H](O)CN)C(=O)NCC(=O)N[C@H](CCCN)C(=O)N1CCC[C@H]1C(=O)N[C@@H](Cc1ccc(F)c(F)c1)C(=O)N[C@@H](CCCCN)C(=O)N/C(=C\CCNC(=N)N)C(=O)O [24.84] (H-K[Dab(3S-OH)]AG[dOrn]P[Phe(3,4-F2)]K[ΔZArg]-OH) | − (>32 μg/mL) | ++ (≤8 μg/mL) | ++ (≤8 μg/mL) | − (>32 μg/mL) |
| C[C@H](NC(=O)[C@@H](NC(=O)[C@@H](N)CCCCN)[C@@H](O)CN)C(=O)NCC(=O)N[C@H](CCCN)C(=O)N1CCC[C@H]1C(=O)N[C@@H](Cc1cc(F)cc(F)c1)C(=O)N[C@@H](CCCCN)C(=O)N/C(=C\CCNC(=N)N)C(=O)O [24.86] (H-K[Dab(3S-OH)]AG[dOrn]P[Phe(3,5-F2)]K[ΔZArg]-OH) | − (>32 μg/mL) | + (≤32 μg/mL) | ++ (≤8 μg/mL) | − (>32 μg/mL) |
| C[C@H](NC(=O)[C@@H](NC(=O)[C@@H](N)CCCCN)[C@@H](O)CN)C(=O)NCC(=O)N[C@H](CCCN)C(=O)N1CCC[C@H]1C(=O)N[C@@H](Cc1cccc(C(F)(F)F)c1)C(=O)N[C@@H](CCCCN)C(=O)N/C(=C\CCNC(=N)N)C(=O)O [24.87] (H-K[Dab(3S-OH)]AG[dOrn]P[Phe(3-CF3)]K[ΔZArg]-OH) | − (>32 μg/mL) | + (≤32 μg/mL) | ++ (≤8 μg/mL) | − (>32 μg/mL) |
| C[C@H](NC(=O)[C@@H](NC(=O)[C@@H](N)CCCCN)[C@@H](O)CN)C(=O)NCC(=O)N[C@H](CCCN)C(=O)N1CCC[C@H]1C(=O)N[C@@H](Cc1cccc(C#N)c1)C(=O)N[C@@H](CCCCN)C(=O)N/C(=C\CCNC(=N)N)C(=O)O [24.89] (H-K[Dab(3S-OH)]AG[dOrn]P[Phe(3-CN)]K[ΔZArg]-OH) | − (>32 μg/mL) | + (≤32 μg/mL) | ++ (≤8 μg/mL) | − (>32 μg/mL) |
| C[C@H](NC(=O)[C@@H](NC(=O)[C@@H](N)CCCCN)[C@@H](O)CN)C(=O)NCC(=O)N[C@H](CCCN)C(=O)N1CCC[C@H]1C(=O)N[C@@H](Cc1cncn1C)C(=O)N[C@@H](CCCCN)C(=O)N/C(=C\CCNC(=N)N)C(=O)O [24.91] (H-K[Dab(3S-OH)]AG[dOrn]P[His(π-Me)]K[ΔZArg]-OH) | − (>32 μg/mL) | + (≤32 μg/mL) | + (≤32 μg/mL) | − (>32 μg/mL) |
| COc1cccc(C[C@H](NC(=O)[C@@H]2CCCN2C(=O)[C@@H](CCCN)NC(=O)CNC(=O)[C@H](C)NC(=O)[C@@H](NC(=O)[C@@H](N)CCCCN)[C@@H](O)CN)C(=O)N[C@@H](CCCCN)C(=O)N/C(=C\CCNC(=N)N)C(=O)O)c1 [24.92] (H-K[Dab(3S-OH)]AG[dOrn]P[Phe(3-OMe)]K[ΔZArg]-OH) | − (>32 μg/mL) | + (≤32 μg/mL) | ++ (≤8 μg/mL) | − (>32 μg/mL) |
| C[C@H](NC(=O)[C@@H](NC(=O)[C@@H](N)CCCCN)[C@@H](O)CN)C(=O)NCC(=O)N[C@H](CCCN)C(=O)N1CCC[C@H]1C(=O)N[C@@H](Cc1ccc(C(F)(F)F)cc1)C(=O)N[C@@H](CCCCN)C(=O)N/C(=C\CCNC(=N)N)C(=O)O [24.94] (H-K[Dab(3S-OH)]AG[dOrn]P[Phe(4-CF3)]K[ΔZArg]-OH) | − (>32 μg/mL) | ++ (≤8 μg/mL) | ++ (≤8 μg/mL) | − (>32 μg/mL) |
